Publication PMC4766503, “A novel peptide with potent and broad-spectrum antiviral activities against multiple respiratory viruses” (Scientific Reports, 2016)
Peptide text beside a SMILES is read from it.

Experiments:
[1] = mouse, in vivo
[2] = in vivo
MDCK cells = settings: 24 h
[3] = system: HA-cell membrane fusion in 293FT cells expressing HA; settings: low pH 5.0
H1N1 virus [4] = system: H1N1 virus; design: species or system BALB/c mice; settings: mouse, in vivo
SARS-CoV [5] = system: SARS-CoV
[6] = system: endosomal acidification in H1N1-infected MDCK cells; format: cell-based, canine
MERS-CoV S1 = MERS-CoV S1 (Middle East respiratory syndrome-related coronavirus, UniProt K9N5Q8)
[7] = synthetic P9, water
SARS-CoV [8] = settings: in vivo
H7N9 virus = system: H7N9 virus; design: species or system BALB/c mice; settings: mouse, in vivo
[9] = system: influenza A virus H3N2, H5N1, H7N7 and H7N9; settings: H7N7 and H7N9, 24 h
H1N1 viral HA = H1N1 viral HA (Influenza A virus, UniProt C3W5S1)
H1N1 virus [10] = settings: for 50% inhibitory concentration (IC50) against H1N1: virus, 1 h
H5N1 virus = system: H5N1 virus; design: species or system BALB/c mice; settings: mouse, in vivo
MERS-CoV S2 = MERS-CoV S2 (Middle East respiratory syndrome-related coronavirus, UniProt K9N5Q8)
MERS-CoV S2, sequence (K9N5Q8 752-1353 limits assumed): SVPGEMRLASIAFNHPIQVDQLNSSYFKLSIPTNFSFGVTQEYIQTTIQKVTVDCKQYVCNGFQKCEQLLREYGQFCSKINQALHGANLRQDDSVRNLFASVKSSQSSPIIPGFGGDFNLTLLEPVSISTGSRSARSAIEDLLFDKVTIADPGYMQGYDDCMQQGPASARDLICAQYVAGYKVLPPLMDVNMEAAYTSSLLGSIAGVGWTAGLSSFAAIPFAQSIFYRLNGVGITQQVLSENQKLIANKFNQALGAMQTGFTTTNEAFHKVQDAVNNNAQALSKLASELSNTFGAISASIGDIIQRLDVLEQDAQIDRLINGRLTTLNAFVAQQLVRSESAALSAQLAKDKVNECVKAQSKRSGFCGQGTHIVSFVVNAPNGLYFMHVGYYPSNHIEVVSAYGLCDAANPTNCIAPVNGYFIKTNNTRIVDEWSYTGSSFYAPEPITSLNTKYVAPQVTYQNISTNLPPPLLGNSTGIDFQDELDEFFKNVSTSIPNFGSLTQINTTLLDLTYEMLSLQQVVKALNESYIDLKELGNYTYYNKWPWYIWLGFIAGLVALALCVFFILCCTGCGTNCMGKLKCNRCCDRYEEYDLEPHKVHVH

H1N1 viral HA, sequence (C3W5S1 entry or part of it, added parts left off): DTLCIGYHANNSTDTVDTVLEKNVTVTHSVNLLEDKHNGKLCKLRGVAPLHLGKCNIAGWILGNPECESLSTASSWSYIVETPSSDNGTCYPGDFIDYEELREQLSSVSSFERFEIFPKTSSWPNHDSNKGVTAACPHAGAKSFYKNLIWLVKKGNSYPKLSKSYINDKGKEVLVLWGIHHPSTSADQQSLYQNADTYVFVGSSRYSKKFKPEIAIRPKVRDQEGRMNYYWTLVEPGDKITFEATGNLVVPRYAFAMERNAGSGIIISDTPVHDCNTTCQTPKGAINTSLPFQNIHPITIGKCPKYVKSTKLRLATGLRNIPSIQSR
MERS-CoV S1, sequence (K9N5Q8 18-751 limits assumed): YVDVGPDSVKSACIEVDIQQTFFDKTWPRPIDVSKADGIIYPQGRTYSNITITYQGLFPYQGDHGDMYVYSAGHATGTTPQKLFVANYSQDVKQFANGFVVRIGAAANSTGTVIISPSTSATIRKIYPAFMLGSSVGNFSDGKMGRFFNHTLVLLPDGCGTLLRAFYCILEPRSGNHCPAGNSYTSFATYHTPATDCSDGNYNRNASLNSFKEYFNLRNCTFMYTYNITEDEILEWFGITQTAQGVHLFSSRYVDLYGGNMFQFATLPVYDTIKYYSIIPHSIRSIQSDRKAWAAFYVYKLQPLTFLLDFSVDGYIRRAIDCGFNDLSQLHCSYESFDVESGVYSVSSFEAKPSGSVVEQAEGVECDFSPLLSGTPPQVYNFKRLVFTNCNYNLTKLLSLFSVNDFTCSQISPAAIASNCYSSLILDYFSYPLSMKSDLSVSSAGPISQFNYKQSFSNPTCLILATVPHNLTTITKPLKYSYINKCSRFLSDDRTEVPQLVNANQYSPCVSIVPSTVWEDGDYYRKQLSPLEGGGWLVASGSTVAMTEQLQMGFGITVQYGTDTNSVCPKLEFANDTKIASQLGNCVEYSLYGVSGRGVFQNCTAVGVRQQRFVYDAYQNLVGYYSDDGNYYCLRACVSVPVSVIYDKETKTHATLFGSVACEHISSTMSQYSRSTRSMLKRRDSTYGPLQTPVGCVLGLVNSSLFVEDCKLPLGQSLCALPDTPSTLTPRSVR

CC[C@H](C)[C@H](NC(=O)[C@H](C)NC(=O)CNC(=O)[C@@H](N)CC(N)=O)C(=O)N[C@@H](CS)C(=O)N[C@@H](Cc1c[nH]c2ccccc12)C(=O)NCC(=O)N1CCC[C@H]1C(=O)N[C@@H](CS)C(=O)N1CCC[C@H]1C(=O)N[C@H](C(=O)N[C@@H](C)C(=O)N[C@@H](Cc1ccccc1)C(=O)N[C@@H](CCCNC(=N)N)C(=O)N[C@@H](CCC(N)=O)C(=O)N[C@H](C(=O)NCC(=O)N[C@@H](CC(N)=O)C(=O)N[C@@H](CS)C(=O)NCC(=O)N[C@@H](Cc1c[nH]cn1)C(=O)N[C@@H](Cc1ccccc1)C(=O)N[C@@H](CCCCN)C(=O)N[C@H](C(=O)N[C@@H](CCCNC(=N)N)C(=O)N[C@@H](CS)C(=O)N[C@@H](CS)C(=O)N[C@@H](CCCCN)C(=O)N[C@H](C(=O)N[C@@H](CCCNC(=N)N)C(=O)O)[C@@H](C)CC)C(C)C)[C@@H](C)CC)[C@@H](C)O [Peptide P9] (H-NGAICWGPCPTAFRQIGNCGHFKVRCCKIR-OH)
food consumption or sickness [1]: no obvious reduction of food consumption or sickness
body weight loss, i.n. ([1]; 50 mg/kg): less than 10%
body weight loss, i.p. ([1]; ip, 500 mg/kg): less than 10%
P9 signal on surface of mouse bronchial tubes after administration [2]: almost undetectable level
50% toxic concentration (TC50) (MDCK cells): 380 µg/mL
HA-cell membrane fusion (polykaryon formation) [3]: did not directly inhibit
binding to NA (H1N1 viral NA): not NA
mice protected from lethal challenge, P9 given 2 h before challenge (H1N1 virus [4]): 60%
mice protected from lethal challenge, P9 given 4 h before challenge (H1N1 virus [4]): 30%
mice protected from lethal challenge, P9 given 8 h before challenge (H1N1 virus [4]): 20%
survival rate, prophylactic (H1N1 virus [4]): 100%
survival rate, therapeutic (H1N1 virus [4]): 60%
viral loads in lung tissues (H1N1 virus [4]): significantly lower
inhibition of SARS-CoV infection (SARS-CoV [5]): more than 95%
IC50 against SARS-CoV (SARS-CoV [5]; 24 h): about 5 μg/ml
pH lowering (acidification) in endosomes [6]: acidification was abolished
binding to S1 of MERS-CoV (MERS-CoV S1): not S1
inhibition of MERS-CoV infection (MERS-CoV): more than 95%
IC50 against MERS-CoV (MERS-CoV; 24 h): about 5 μg/ml
solubility and stability in water [7]: highly soluble and stable in water
virus infection in mouse lungs (SARS-CoV [8]): significantly inhibited
mice protected from lethal H7N9 challenge, prophylaxis (H7N9 virus): 50%
mice protected from lethal H7N9 challenge, therapy (H7N9 virus): 50%
IC50s against H3N2, H5N1, H7N7 and H7N9 [9]: 1.5 to 4.8 µg/mL
binding to HA (H1N1 viral HA): bound to HA
antiviral activity among short peptides (H1N1 virus [10]): strongest antiviral activity
50% inhibitory concentration (IC50) against H1N1 (H1N1 virus [10]): 1.2 µg/mL
mice protected from lethal H5N1 challenge, prophylaxis (H5N1 virus): 44%
mice protected from lethal H5N1 challenge, therapy (H5N1 virus): 50%
binding to S2 of MERS-CoV (MERS-CoV S2): bound to S2

Cl.N [NH4Cl, ammonium chloride, reference compound]
pH lowering (acidification) in endosomes [6]: acidification was abolished

CO/C1=C\C(C)=C\[C@@H](C)[C@@H](O)[C@@H](C)C/C(C)=C/C=C/[C@H](OC)[C@@H]([C@@H](C)[C@@H](O)[C@H](C)[C@@]2(O)C[C@@H](O)[C@H](C)[C@@H](C(C)C)O2)OC1=O [Bafilomycin A1, reference compound]
pH lowering (acidification) in endosomes [6]: acidification was abolished

CC(=O)N[C@H]1[C@H]([C@H](O)[C@H](O)CO)OC(C(=O)O)=C[C@@H]1N=C(N)N [Zanamivir, reference compound]
survival rate, therapeutic (H1N1 virus [4]): 80%
mice protected from lethal H7N9 challenge, prophylaxis (H7N9 virus): 60%
mice protected from lethal H7N9 challenge, therapy (H7N9 virus): 70%
mice protected from lethal H5N1 challenge, prophylaxis (H5N1 virus): 50%
mice protected from lethal H5N1 challenge, therapy (H5N1 virus): 60%

CC[C@H](C)[C@H](NC(=O)[C@H](C)NC(=O)CNC(=O)[C@@H](N)CC(N)=O)C(=O)N[C@@H](CS)C(=O)N[C@@H](Cc1c[nH]c2ccccc12)C(=O)NCC(=O)N1CCC[C@H]1C(=O)N[C@@H](CS)C(=O)N1CCC[C@H]1C(=O)N[C@H](C(=O)N[C@@H](C)C(=O)N[C@@H](Cc1ccccc1)C(=O)N[C@@H](CCCNC(=N)N)C(=O)N[C@@H](CCC(N)=O)C(=O)N[C@H](C(=O)NCC(=O)N[C@@H](CC(N)=O)C(=O)N[C@@H](CS)C(=O)NCC(=O)N[C@@H](Cc1c[nH]cn1)C(=O)N[C@@H](Cc1ccccc1)C(=O)N[C@@H](CCCCN)C(=O)N[C@H](C(=O)N[C@@H](CCCNC(=N)N)C(=O)N[C@@H](CS)C(=O)N[C@@H](CS)C(=O)N[C@@H](CCCCN)C(=O)N[C@H](C(=O)N[C@@H](CCCNC(=N)N)C(=O)N[C@@H](CC(=O)O)C(=O)N[C@@H](CCC(=O)O)C(=O)N[C@@H](CC(=O)O)C(=O)O)[C@@H](C)CC)C(C)C)[C@@H](C)CC)[C@@H](C)O [Peptide P9-aci-1] (H-NGAICWGPCPTAFRQIGNCGHFKVRCCKIRDED-OH)
pH lowering (acidification) in endosomes [6]: unaffected
50% inhibitory concentration (IC50) against H1N1 (H1N1 virus [10]): > 100 µg/mL
